The values that follow come from the supplement of paper PMC7224384.

Assay [1] deals with MDA-MB-453. The assay is described as follows: drug sensitivity score (DSS), in combination with BLU9931 (DSS (weighted AUC score)); higher = more sensitive (stronger viability decrease); extreme values may be limits of the assay. Particulars: BLU9931 100 nM; 72 h. A digest of the protocol:
(§1)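 Compounds from the FIMM Oncology set were predispensed in singlicate at five 10-fold dilutions (10,000-fold range) on 384-well plates. Each well then received 2000 MDA-MB-453 cells in medium with or without an FGFR4 inhibitor (100 nM final) and was kept at 37 °C, 5% CO2. Cellular ATP was read with CellTiterGlo 2.0 after 72 h and normalised per plate to percent viability from control wells. The drug sensitivity score is a weighted area under a four-parameter logistic fit.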

In assay [2] the test system is MDA-MB-453. As to the kind of experiment: drug sensitivity score (DSS), single agent (DSS (weighted AUC score)); higher = more sensitive (stronger viability decrease); extreme values may be limits of the assay. The following applies: BLU9931 0 nM; 72 h. A digest of the protocol:
as §1

With `Cc1nc(NC(=O)N2CCC[C@H]2C(N)=O)sc1-c1ccnc(C(C)(C)C(F)(F)F)c1` [Alpelisib], the drug sensitivity score was determined as 8 with MDA-MB-453 [1] and 7.2 in the assay on MDA-MB-453 [2].

Turning to `Cn1cc(C2=Nc3cc(NC(=O)C(N)C4CCCCC4)cc4c3C2=CNNC4=O)cn1` (stereo unspecified), the values for the drug sensitivity score with MDA-MB-453 [1] and in the assay with MDA-MB-453 [2] were 9.9 and 14.4, respectively.

`Cc1nc(-c2cn3c(n2)-c2ccc(-c4cnn(C(C)(C)C(N)=O)c4)cc2OCC3)n(C(C)C)n1` [Taselisib]: the figures for the drug sensitivity score in the assay with MDA-MB-453 [1] and in the assay with MDA-MB-453 [2] were 19.3 and 17.9, respectively.

As to `CO[C@H]1C[C@@H]2CC[C@@H](C)[C@@](O)(O2)C(=O)C(=O)N2CCCC[C@H]2C(=O)O[C@H]([C@H](C)C[C@@H]2CC[C@@H](O)[C@H](OC)C2)CC(=O)[C@H](C)/C=C(\C)[C@@H](O)[C@@H](OC)C(=O)[C@H](C)C[C@H](C)/C=C/C=C/C=C/1C` [Sirolimus], the drug sensitivity score in the assay with MDA-MB-453 [1] stood at 10.5; in the assay on MDA-MB-453 [2] it was 5.1.

For the compound `CO[C@H](C(=O)[C@@H](O)[C@@H](C)O)[C@@H]1Cc2cc3cc(O[C@H]4C[C@@H](O[C@@H]5C[C@@H](O)[C@H](O)[C@@H](C)O5)[C@H](O)[C@@H](C)O4)c(C)c(O)c3c(O)c2C(=O)[C@H]1O[C@H]1C[C@@H](O[C@@H]2C[C@@H](O)[C@@H](O[C@@H]3C[C@](C)(O)[C@H](O)[C@@H](C)O3)[C@@H](C)O2)[C@H](O)[C@@H](C)O1` [Plicamycin], the drug sensitivity score in the assay on MDA-MB-453 [1] and with MDA-MB-453 [2] was 15.7 in each case.

Turning to `CCc1nc(C(N)=O)c(Nc2ccc(N3CCC(N4CCN(C)CC4)CC3)c(OC)c2)nc1NC1CCOCC1` [Gilteritinib], the drug sensitivity score in the assay with MDA-MB-453 [1] and with MDA-MB-453 [2] was 0 throughout.

Regarding `CC(=O)Nc1cccc(-n2c(=O)n(C3CC3)c(=O)c3c(Nc4ccc(I)cc4F)n(C)c(=O)c(C)c32)c1` [Trametinib], the drug sensitivity score with MDA-MB-453 [1] came out at 2.7; with MDA-MB-453 [2] it was 5.7.

On to `Cc1nc2cccc(N)c2c(=O)n1C1CCC(=O)NC1=O` (stereo unspecified) [CC122], for which the drug sensitivity score in the assay on MDA-MB-453 [1] and in the assay on MDA-MB-453 [2] was 0 throughout.

As for `CC(C)n1nc(-c2ccc3oc(N)nc3c2)c2c(N)ncnc21` [Sapanisertib], the values for the drug sensitivity score in the assay on MDA-MB-453 [1] and in the assay on MDA-MB-453 [2] were 17.9 and 17.1, respectively.

In the case of `C[C@@]1(C(=O)Nc2ccc(F)nc2)CCCN1c1nc(Nc2cc(C3CC3)n[nH]2)c2cccn2n1`, the drug sensitivity score with MDA-MB-453 [1] and with MDA-MB-453 [2] was 0 throughout.

On to `CC[C@@H]1[C@H](F)C(=O)N[C@@H]1COc1nccc2cc(C(N)=O)c(OC)cc12`, for which the drug sensitivity score worked out at 0.4 in the assay with MDA-MB-453 [1] and 2.9 in the assay with MDA-MB-453 [2].

As to `CCCc1cc(C)[nH]c(=O)c1CNC(=O)c1cc(-c2ccnc(N3CCN(C)CC3)c2)cc2c1cnn2C(C)C` [GSK343], the drug sensitivity score with MDA-MB-453 [1] and with MDA-MB-453 [2] was 0 each time.

In the case of `CC#CC(=O)N1CC[C@@H](n2c(=O)n(-c3ccc(Oc4ccccc4)cc3)c3c(N)ncnc32)C1` [Tirabrutinib], the drug sensitivity score in the assay with MDA-MB-453 [1] was found to be 6.3; in the assay with MDA-MB-453 [2] it was 5.7.

On to `CCCCOc1nc(N)c2c(n1)N(Cc1cccc(CN3CCCC3)c1)CC(=O)N2` [Vesatolimod], for which the drug sensitivity score in the assay on MDA-MB-453 [1] was determined as 0; with MDA-MB-453 [2], 3.

For `CN(C)c1cc2c(cc1Sc1nc3c(N)nccc3n1CCNCC(C)(C)C)OCO2` [CUDC-305], the drug sensitivity score in the assay on MDA-MB-453 [1] is 15.9; in the assay on MDA-MB-453 [2] it was 17.6.

Turning to `CCNC(=O)CCC/C=C\C[C@@H]1[C@@H](/C=C/[C@@H](O)CCc2ccccc2)[C@H](O)C[C@@H]1O` [Bimatoprost], the drug sensitivity score in the assay on MDA-MB-453 [1] and with MDA-MB-453 [2] was 0 each time.

With `CC1(C)C(C(=O)Nc2ccc(S(=O)(=O)c3ccc(NC(=O)C4C(C)(C)C4(C)C)cc3)cc2)C1(C)C` [BRD7116], the drug sensitivity score is 3.9 with MDA-MB-453 [1] and 4.5 with MDA-MB-453 [2].

Take `CC/C(=C(\c1ccc(O)cc1)c1ccc(OCCN(C)C)cc1)c1ccccc1` [4-hydroxytamoxifen]: the drug sensitivity score in the assay on MDA-MB-453 [1] was 4.5; in the assay on MDA-MB-453 [2], 4.8.

For the compound `CO[C@H]1C[C@@H]2CC[C@@H](C)[C@@](O)(O2)C(=O)C(=O)N2CCCC[C@H]2C(=O)O[C@H]([C@H](C)C[C@@H]2CC[C@@H](OCCO)[C@H](OC)C2)CC(=O)[C@H](C)/C=C(\C)[C@@H](O)[C@@H](OC)C(=O)[C@H](C)C[C@H](C)/C=C/C=C/C=C/1C` [Everolimus], the drug sensitivity score in the assay with MDA-MB-453 [1] was found to be 13.6; with MDA-MB-453 [2], 9.5.

On to `CCN(CC)CCCC(C)Nc1c2ccc(Cl)cc2nc2ccc(OC)cc12` (stereo unspecified) [Mepacrine], for which the figures for the drug sensitivity score with MDA-MB-453 [1] and in the assay with MDA-MB-453 [2] were 14.7 and 16.2, respectively.

As for `CCS(=O)(=O)N1CC(CC#N)(n2cc(-c3ncnc4[nH]ccc34)cn2)C1` [Baricitinib], the drug sensitivity score with MDA-MB-453 [1] and with MDA-MB-453 [2] was 0 each time.

As for `COc1cccc2c1C(=O)c1c(O)c3c(c(O)c1C2=O)C[C@@](O)(/C(CO)=N/NC(=O)CCCCCN1C(=O)C=CC1=O)C[C@@H]3O[C@H]1C[C@H](N)[C@H](O)[C@H](C)O1` [Aldoxorubicin], the drug sensitivity score with MDA-MB-453 [1] came to 5.4; in the assay on MDA-MB-453 [2], 5.8.

`CC[C@@H]1C(=O)N(C)c2cnc(Nc3ccc(C(=O)N[C@H]4CC[C@H](N5CCN(CC6CC6)CC5)CC4)cc3OC)nc2N1C(C)C` [Volasertib]: the drug sensitivity score in the assay with MDA-MB-453 [1] stood at 7.8; in the assay on MDA-MB-453 [2] it was 10.5.

In the case of `O=C(O)C(=O)O.[NH-][C@@H]1CCCC[C@H]1[NH-].[Pt+2]` [Oxaliplatin], the drug sensitivity score in the assay with MDA-MB-453 [1] was found to be 7; with MDA-MB-453 [2], 8.2.

`C=CC[C@@H]1/C=C(\C)C[C@H](C)C[C@H](OC)[C@H]2O[C@@](O)(C(=O)C(=O)N3CCCC[C@H]3C(=O)O[C@H](/C(C)=C/[C@@H]3CC[C@@H](O)[C@H](OC)C3)[C@H](C)[C@@H](O)CC1=O)[C@H](C)C[C@@H]2OC` [Tacrolimus]: the drug sensitivity score in the assay with MDA-MB-453 [1] worked out at 0.8; with MDA-MB-453 [2] it was 2.2.

For `CC(C)N(CCCNC(=O)Nc1ccc(C(C)(C)C)cc1)C[C@H]1O[C@@H](n2cc(Br)c3c(N)ncnc32)[C@H](O)[C@@H]1O` [SGC0946], the drug sensitivity score with MDA-MB-453 [1] came out at 0.1; in the assay on MDA-MB-453 [2], 0.9.

Consider `COCCOc1cnc2ccn([C@H](C)c3nnc4c(F)cc(-c5cnn(C)c5)cn34)c(=O)c2c1` [AMG-337], for which the drug sensitivity score in the assay on MDA-MB-453 [1] and in the assay on MDA-MB-453 [2] was 0 in each case.

Take `CC(C)Oc1ccc(C(=O)N[C@H](CNC(=O)CN(C)C)Cc2ccc(-c3cn4cccc([C@H](C)O)c4n3)cc2)cc1Cl`: the drug sensitivity score turned out to be 8.8 in the assay on MDA-MB-453 [1] and 14.3 with MDA-MB-453 [2].

`CN(C)Cc1c(C(=O)NCCOc2ccc(C(=O)NO)cc2)oc2ccccc12` [Abexinostat]: the drug sensitivity score was found to be 22.3 in the assay with MDA-MB-453 [1] and 22.6 with MDA-MB-453 [2].

As for `CNC(=O)c1ccc(N2C(=S)N(c3cnc(C#N)c(C(F)(F)F)c3)C(=O)C23CCC3)cc1F` [Apalutamide], the drug sensitivity score with MDA-MB-453 [1] and in the assay on MDA-MB-453 [2] was 0 throughout.

On to `CNC(=O)c1ccc(N2C(=S)N(c3ccc(C#N)c(C(F)(F)F)c3)C(=O)C2(C)C)cc1F` [Enzalutamide], for which the figures for the drug sensitivity score in the assay on MDA-MB-453 [1] and with MDA-MB-453 [2] were 0 and 1.3, respectively.

Regarding `O=C(CCCCCCC(=O)Nc1ccc([C@H]2O[C@@H](CSc3nc(-c4ccccc4)c(-c4ccccc4)o3)C[C@@H](c3ccc(CO)cc3)O2)cc1)NO` [Tubacin], the drug sensitivity score in the assay with MDA-MB-453 [1] is 1.7; with MDA-MB-453 [2] it was 2.

Consider `CC1=C2C[C@H]3[C@@H](CC[C@@H]4C[C@H](NS(C)(=O)=O)CC[C@@]43C)[C@@H]2CC[C@@]2(C1)O[C@@H]1C[C@H](C)CN[C@H]1[C@H]2C` [Saridegib], for which the drug sensitivity score in the assay on MDA-MB-453 [1] and in the assay with MDA-MB-453 [2] was 0 throughout.

As to `CN[C@@H]1C[C@H]2O[C@@](C)([C@@H]1OC)n1c3ccccc3c3c4c(c5c6ccccc6n2c5c31)C(=O)N[C@H]4O` [UCN-01], the drug sensitivity score in the assay with MDA-MB-453 [1] is 16; in the assay with MDA-MB-453 [2], 18.2.

With `Cn1cc(-c2cnn3c(N)c(Br)c([C@@H]4CCCNC4)nc23)cn1` [MK-8776], the drug sensitivity score in the assay with MDA-MB-453 [1] is 1.3; in the assay with MDA-MB-453 [2] it was 1.1.

In the case of `CS(=O)(=O)CCNCc1ccc(-c2ccc3ncnc(Nc4ccc(OCc5cccc(F)c5)c(Cl)c4)c3c2)o1` [Lapatinib], the drug sensitivity score with MDA-MB-453 [1] is 7; with MDA-MB-453 [2], 6.5.

Take `C=CCc1cccc(/C=N/NC(=O)CN2CCN(Cc3ccccc3)CC2)c1O` [PAC-1]: the drug sensitivity score with MDA-MB-453 [1] is 4.9; with MDA-MB-453 [2] it was 4.4.

For the compound `CC(C)(O)CNc1nc(Nc2ccnc(C(F)(F)F)c2)nc(-c2cccc(C(F)(F)F)n2)n1` [Enasidenib], the drug sensitivity score amounted to 0.1 in the assay with MDA-MB-453 [1] and 0 in the assay with MDA-MB-453 [2].

As to `CC(C)(C)c1cnc(CSc2cnc(NC(=O)C3CCNCC3)s2)o1` [SNS-032], the results for the drug sensitivity score in the assay with MDA-MB-453 [1] and in the assay with MDA-MB-453 [2] were 19.1 and 18.1, respectively.

As to `COc1ccc(Cn2ccc3ccc(C(=O)NO)cc32)cc1`, the figures for the drug sensitivity score in the assay on MDA-MB-453 [1] and in the assay on MDA-MB-453 [2] were 2.3 and 0.8, respectively.

In the case of `Cn1cc(C[C@@H](N)C(=O)O)c2ccccc21` [1-methyl-D-tryptophan], the drug sensitivity score in the assay with MDA-MB-453 [1] turned out to be 0; in the assay with MDA-MB-453 [2], 0.2.

As for `COc1cc(C(=O)O)ccc1NC(=O)[C@@H]1N[C@@H](CC(C)(C)C)[C@](C#N)(c2ccc(Cl)cc2F)[C@H]1c1cccc(Cl)c1F` [Idasanutlin], the drug sensitivity score is 0 in the assay on MDA-MB-453 [1] and 1.1 in the assay on MDA-MB-453 [2].

Consider `O=C1CCc2c(Oc3ccc4c(c3)[C@@H]3[C@H](O4)[C@H]3c3nc4cc(C(F)(F)F)ccc4[nH]3)ccnc2N1` [BGB-283], for which the drug sensitivity score in the assay with MDA-MB-453 [1] was determined as 1.3; with MDA-MB-453 [2], 3.6.
